In patent US20230190735A1 (TFF Pharmaceuticals, Inc., priority 2021, published 2023):
Read-outs that look alike come from different tables or passages of the source.

Assays:
CYP2C9 = CYP2C9 (Homo sapiens, UniProt P11712); conditions: in vitro studies; cited from earlier work
[1] = major metabolite of voriconazole; cited from earlier work
CYP3A [2] = molecular target: CYP3A (Homo sapiens, UniProt P08684); conditions: in vitro studies; CYP3A4; cited from earlier work
[3] = cited from earlier work; for reduction of mean AUC with high-fat meals: multiple doses
[4] = independent of plasma concentration (approx. 0.9-15 μg/mL); cited from earlier work
CYP2B6 = molecular target: T1, CYP2B6 (Homo sapiens, UniProt P20813); conditions: total drug, Ki values based on Jeong 2009; cited from earlier work
T1 sequence (P20813 1-491): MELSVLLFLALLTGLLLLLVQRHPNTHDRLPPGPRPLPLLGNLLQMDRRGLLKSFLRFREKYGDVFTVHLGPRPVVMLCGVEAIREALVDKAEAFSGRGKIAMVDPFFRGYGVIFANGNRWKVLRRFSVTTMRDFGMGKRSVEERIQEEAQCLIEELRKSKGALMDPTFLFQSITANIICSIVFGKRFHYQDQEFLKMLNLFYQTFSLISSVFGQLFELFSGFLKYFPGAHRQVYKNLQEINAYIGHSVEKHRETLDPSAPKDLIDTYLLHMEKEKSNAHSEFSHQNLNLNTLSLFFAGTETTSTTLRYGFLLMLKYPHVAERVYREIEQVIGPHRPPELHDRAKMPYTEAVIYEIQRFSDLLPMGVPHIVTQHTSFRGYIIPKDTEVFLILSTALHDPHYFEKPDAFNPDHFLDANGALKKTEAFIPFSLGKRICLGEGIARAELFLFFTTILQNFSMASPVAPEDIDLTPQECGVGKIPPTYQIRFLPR

CYP3A [5] = conditions: CYP3A; total drug; Ki values based on Jeong 2009; cited from earlier work
[6] = PK of systemically administered (oral or IV) voriconazole, VFEND package insert and literature; type: in vivo, human; conditions: Imax = Cmax/MW
[7] = 3 mg/kg IV q12h, geometric mean (% CV)
[8] = 4 mg/kg IV q12h, geometric mean (% CV)
[9] = 6 mg/kg IV (loading dose), geometric mean (% CV)
[10] = 200 mg oral q12h, geometric mean (% CV)
[11] = 300 mg oral q12h, geometric mean (% CV)
[12] = 400 mg oral (loading dose), geometric mean (% CV)

Chain of CYP2C9 (P11712 whole entry): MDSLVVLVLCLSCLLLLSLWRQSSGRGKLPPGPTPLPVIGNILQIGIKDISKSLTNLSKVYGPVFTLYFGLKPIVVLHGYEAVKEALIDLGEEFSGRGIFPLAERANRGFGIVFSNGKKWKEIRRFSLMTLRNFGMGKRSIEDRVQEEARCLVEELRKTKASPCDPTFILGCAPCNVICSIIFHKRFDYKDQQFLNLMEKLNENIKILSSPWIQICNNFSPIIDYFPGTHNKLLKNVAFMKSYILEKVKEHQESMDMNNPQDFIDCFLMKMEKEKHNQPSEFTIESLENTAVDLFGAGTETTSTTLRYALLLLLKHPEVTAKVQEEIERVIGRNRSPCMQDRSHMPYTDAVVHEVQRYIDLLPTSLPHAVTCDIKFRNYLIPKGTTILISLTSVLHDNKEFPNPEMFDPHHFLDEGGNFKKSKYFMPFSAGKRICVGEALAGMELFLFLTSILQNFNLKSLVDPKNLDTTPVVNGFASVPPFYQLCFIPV
Chain of CYP3A (Homo sapiens, UniProt P08684) (P08684 2-503): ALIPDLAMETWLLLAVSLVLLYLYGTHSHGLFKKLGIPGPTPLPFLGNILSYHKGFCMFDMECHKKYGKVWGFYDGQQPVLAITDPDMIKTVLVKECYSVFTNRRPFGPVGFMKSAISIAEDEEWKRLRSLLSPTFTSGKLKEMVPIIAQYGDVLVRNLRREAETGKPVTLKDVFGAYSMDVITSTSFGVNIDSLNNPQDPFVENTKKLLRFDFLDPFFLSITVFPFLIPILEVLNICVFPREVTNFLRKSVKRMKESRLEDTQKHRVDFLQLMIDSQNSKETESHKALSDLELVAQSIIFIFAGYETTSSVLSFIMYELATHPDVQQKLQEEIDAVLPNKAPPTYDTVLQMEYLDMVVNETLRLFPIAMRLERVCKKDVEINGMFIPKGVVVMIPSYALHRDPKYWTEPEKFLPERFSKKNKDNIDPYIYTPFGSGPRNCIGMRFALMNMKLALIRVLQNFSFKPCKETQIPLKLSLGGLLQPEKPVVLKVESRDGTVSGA

For C[C@@H](c1nc[n+]([O-])cc1F)[C@](O)(Cn1cncn1)c1ccc(F)cc1F [N-oxide], the “inhibition of metabolic activity of CYP2C9” value (CYP2C9) is given as “inhibits”, the antifungal activity [1] is given as “minimal antifungal activity” and the “inhibition of metabolic activity of CYP3A4” value (CYP3A [2]) is given as “inhibits”. For the same compound, the “share of circulating radiolabeled metabolites in plasma” value ([3]; after radiolabeled voriconazole) was 72%.
For C[C@@H](c1ncncc1F)[C@](O)(Cn1cncn1)c1ccc(F)cc1F [Voriconazole, (2R,3S)-2-(2,4-difluro-phenyl)-3-(5-flouro-4-pyrimidinyl)-1 (1H-1,2,4-triazol-1-yl)2-butanol], the Plasma protein binding [4] is listed as 58%, the Ki (CYP2B6) is listed as under 500 nM and the Ki (CYP3A [5]) is listed as 660 nM. The AUC12 [3, 7] was 13.7 (53) μg:h/mL, the Cmax [3, 7] was 3.03 (25) μg/mL and the AUC12 [3, 8] was 33.9 (54) μg:h/mL. The Cmax [3, 8] was 4.77 (36) μg/mL, the AUC12 [3, 9] was 13.9 (32) μg:h/mL and the Cmax [3, 9] was 3.13 (20) μg/mL. The AUC12 ([3]; 200 mg oral q12h, adults, geometric mean (% CV)) was 12.4 (78) μg · h/mL, the AUC12 [3, 10] was 12.4 (78) μg:h/mL and the Cmax [3, 10] was 2.31 (48) μg/mL. For the same compound, the AUC12 ([3]; 300 mg oral q12h, adults, geometric mean (% CV)) was 34.0 (53) μg · h/mL, the AUC12 [3, 11] was 34.0 (53) μg:h/mL and the Cmax [3, 11] was 4.74 (35) μg/mL. For the same compound, the AUC12 ([3]; 400 mg oral (loading dose), adults, geometric mean (% CV)) was 9.31 (38) μg · h/mL, the AUC12 [3, 12] was 9.31 (38) μg:h/mL and the Cmax [3, 12] was 2.30 (19) μg/mL. For the same compound, the “reduction of mean AUC with high-fat meals” value ([3]; oral suspension) was 37%, the “reduction of mean AUC with high-fat meals” value ([3]; tablet) was 24% and the Cmax ([3]; oral 200 mg dose) was 2310 ng/mL. The “volume of distribution at steady state” value ([3]; oral or IV administration) was 4.6 L/kg, the oral bioavailability ([3]; population PK analysis, healthy subjects (N=207)) was 96% and the Imax oral ([6]; based on 200 mg q12h from VFEND label) was 6.61 µM. The Imax oral ([6]; based on Cmax from Anderson 2017) was 3.50 µM.
